The source of these data is US9382197B2, “Substituted hydroxamic acids and uses thereof” (Millennium Pharmaceuticals, Inc., priority 2010, dated 2016).

As usually defined, the IC50 is the concentration that gives 50% inhibition. A high value points to weaker potency in that assay.

A value given as a limit tells only on which side of the number the result lay.

The first assay deals with T1, purified human HDAC6 (Homo sapiens, UniProt Q9UBN7).
T1 construct: purchased BPS Bioscience 5006
T1 sequence (Q9UBN7 1-1215): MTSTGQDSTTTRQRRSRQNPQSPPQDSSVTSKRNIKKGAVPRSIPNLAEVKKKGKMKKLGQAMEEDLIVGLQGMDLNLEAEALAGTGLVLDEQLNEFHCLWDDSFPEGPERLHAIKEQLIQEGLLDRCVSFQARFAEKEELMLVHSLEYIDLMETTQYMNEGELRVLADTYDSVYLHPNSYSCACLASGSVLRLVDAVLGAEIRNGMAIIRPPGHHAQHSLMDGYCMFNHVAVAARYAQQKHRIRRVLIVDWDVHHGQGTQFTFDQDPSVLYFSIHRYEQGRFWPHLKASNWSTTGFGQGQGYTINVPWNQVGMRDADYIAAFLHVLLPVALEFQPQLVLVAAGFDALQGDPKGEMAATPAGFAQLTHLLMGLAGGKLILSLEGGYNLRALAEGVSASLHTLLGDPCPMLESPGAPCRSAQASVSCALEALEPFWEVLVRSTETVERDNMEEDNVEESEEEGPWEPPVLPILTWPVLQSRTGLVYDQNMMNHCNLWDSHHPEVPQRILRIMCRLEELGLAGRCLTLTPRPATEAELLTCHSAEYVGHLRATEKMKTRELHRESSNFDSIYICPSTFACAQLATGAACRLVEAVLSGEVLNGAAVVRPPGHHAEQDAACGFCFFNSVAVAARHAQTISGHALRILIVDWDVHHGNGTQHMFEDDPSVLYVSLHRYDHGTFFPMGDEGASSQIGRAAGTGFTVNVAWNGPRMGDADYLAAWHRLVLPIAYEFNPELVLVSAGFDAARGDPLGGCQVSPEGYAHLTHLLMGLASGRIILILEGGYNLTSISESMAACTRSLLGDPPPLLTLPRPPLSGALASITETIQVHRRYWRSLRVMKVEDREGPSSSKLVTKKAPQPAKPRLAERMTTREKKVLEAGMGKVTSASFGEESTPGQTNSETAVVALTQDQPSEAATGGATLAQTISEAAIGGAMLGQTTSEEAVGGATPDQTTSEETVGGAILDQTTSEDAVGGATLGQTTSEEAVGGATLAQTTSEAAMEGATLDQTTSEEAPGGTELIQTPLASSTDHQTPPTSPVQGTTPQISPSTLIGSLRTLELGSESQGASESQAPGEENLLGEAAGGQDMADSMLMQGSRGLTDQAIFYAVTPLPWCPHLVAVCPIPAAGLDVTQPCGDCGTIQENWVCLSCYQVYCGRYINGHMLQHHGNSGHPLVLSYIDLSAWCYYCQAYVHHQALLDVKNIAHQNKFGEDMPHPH
Kind of assay: HDAC6 Enzyme Assay. It counts as biochemical. The conditions noted are these: bin: greater than 500 nM and less than 1 μM (lower bound in nM, upper bound in μM). The essentials:
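Deacetylated product quantified after trypsin digestion as released AMC (340/460 nm), following a 1 h, 30 °C reaction of human HDAC6 with Ac-RGK(Ac)-AMC peptide, quenched by trichostatin A. IC50 derived from DMSO-normalized curves.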
As to `Cc1cc(C)c(CC(=O)NC(c2ccc(C(=O)NO)cc2)C(C)C)c(C)c1` (centres unmarked) [Compound I-28, N-hydroxy-4-{1-[(mesitylacetyl)amino]-2-methylpropyl}benzamide], the IC50 fell in the range of 500 to 1000 nM.
As to `CC(NC(=O)c1cscn1)c1cccc(C(=O)NO)c1` (centres unmarked) [Compound I-179, N-(1-{3-[(hydroxyamino)carbonyl]phenyl}ethyl)-1,3-thiazole-4-carboxamide], the concentration for half-maximal inhibition (IC50) fell in the range of 500 to 1000 nM.

Staying with this assay, now noted: bin: greater than 1 μM.
For `CC(NC(=O)c1cc2oc(-c3ccc(C(F)(F)F)cc3)cc2n1C)c1cccc(C(=O)NO)c1` (centres unmarked) [Compound I-72, N-(1-{3-[(hydroxyamino)carbonyl]phenyl}ethyl)-4-methyl-2-[4-(trifluoromethyl)phenyl]-4H-furo[3,2-b]pyrrole-5-carboxamide], the IC50 is > 1000 nM.
As to `CC(NC(=O)c1cc2oc(-c3ccccc3)cc2n1C)c1cccc(C(=O)NO)c1` (centres unmarked) [Compound I-180, N-(1-{3-[(hydroxyamino)carbonyl]phenyl}ethyl)-4-methyl-2-phenyl-4H-furo[3,2-b]pyrrole-5-carboxamide], the IC50 is > 1000 nM.
The same measure, in the same setting: the result for `Cc1nc(CC(=O)NC(C)c2ccc(C(=O)NO)cc2)c(C)s1` (centres unmarked) [Compound I-217, 4-(1-{[(2,5-dimethyl-1,3-thiazol-4-yl)acetyl]amino}ethyl)-N-hydroxybenzamide] reads > 1000 nM; that for `Cc1cc(C(=O)NC(C)c2ccc(C(=O)NO)cc2)nn1C` (centres unmarked) [Compound I-241, N-(1-{4-[(hydroxyamino)carbonyl]phenyl}ethyl)-1,5-dimethyl-1H-pyrazole-3-carboxamide], > 1000 nM; that for `Cc1nn(C)cc1C(=O)NC(C)c1cccc(C(=O)NO)c1` (centres unmarked) [Compound I-167, N-(1-{3-[(hydroxyamino)carbonyl]phenyl}ethyl)-1,3-dimethyl-1H-pyrazole-4-carboxamide], > 1000 nM.
Turning to `CC(NC(=O)Cc1ccccc1Cl)c1ccc(C(=O)NO)cc1` (centres unmarked) [Compound I-292, 4-(1-{[(2-chlorophenyl)acetyl]amino}ethyl)-N-hydroxybenzamide], the IC50 is > 1000 nM.

Still in this assay, the particulars now being: purified human HDAC6, substrate Ac-Arg-Gly-Lys(Ac)-AMC, 1 hour at 30° C.; reported as bins.
On to `CC(C)C(NC(=O)c1cc2cc(Cl)ccc2o1)c1ccc(C(=O)NO)cc1` (centres unmarked) [Compound I-130, 5-chloro-N-(1-{4-[(hydroxyamino)carbonyl]phenyl}-2-methylpropyl)-1-benzofuran-2-carboxamide], for which the IC50 is < 100 nM.
The same measure, in the same setting: the result for `CC(NS(=O)(=O)c1ccc(F)cc1)c1ccc(C(=O)NO)cc1` (centres unmarked) [Compound I-2, 4-(1-{[(4-fluorophenyl)sulfonyl]amino}ethyl)-N-hydroxybenzamide] reads 100 to 500 nM; that for `CC(NS(=O)(=O)c1ccccc1)c1ccc(C(=O)NO)cc1` (centres unmarked) [Compound I-315, N-hydroxy-4-{1-[(phenylsulfonyl)amino]ethyl}benzamide], 100 to 500 nM.
`CC(NC(=O)NCCc1ccccc1)c1ccc(C(=O)NO)cc1` (centres unmarked) [Compound I-210, N-hydroxy-4-[1-({[(2-phenylethyl)amino]carbonyl}amino)ethyl]benzamide]: the IC50 is < 100 nM.
The compound `O=C(NO)c1ccc([C@H](NC(=O)C23CC4CC(CC(C4)C2)C3)C2CC2)cc1` [Compound I-46, N-((R)-cyclopropyl{4-[(hydroxyamino)carbonyl]phenyl}methyl)adamantane-1-carboxamide] returned an IC50 of 100 to 500 nM.
`CC(NC(=O)NC1CCCCC1)c1ccc(C(=O)NO)cc1` (centres unmarked) [Compound I-395, 4-(1-{[(cyclohexylamino)carbonyl]amino}ethyl)-N-hydroxybenzamide] registered an IC50 of 100 to 500 nM.
On the same count and under the same terms, the result for `CC(NC(=O)c1ccc(-c2ccccc2)cc1)c1cccc(C(=O)NO)c1` (centres unmarked) [Compound I-142, N-(1-{3-[(hydroxyamino)carbonyl]phenyl}ethyl)biphenyl-4-carboxamide] reads 100 to 500 nM; that for `C[C@@H](NC(=O)Nc1ccccc1-c1ccccc1)c1ccc(C(=O)NO)cc1` [Compound I-523, 4-((1R)-1-{[(biphenyl-2-ylamino)carbonyl]amino}ethyl)-N-hydroxybenzamide], < 100 nM.
Still for that read-out and setting: the result for `CC(C)[C@@H](Nc1nc(C(F)(F)F)cs1)c1ccc(C(=O)NO)cc1` [Compound I-529, N-hydroxy-4-((1R)-2-methyl-1-{[4-(trifluoromethyl)-1,3-thiazol-2-yl]amino}propyl)benzamide] reads < 100 nM; that for `CC(NC(=O)c1c2c(nn1C)CCCC2)c1ccc(C(=O)NO)cc1` (centres unmarked) [Compound I-114, N-(1-{4-[(hydroxyamino)carbonyl]phenyl}ethyl)-2-methyl-4,5,6,7-tetrahydro-2H-indazole-3-carboxamide], 100 to 500 nM.
For `CC(NC(=O)c1cc2ccccc2n1C)c1ccc(C(=O)NO)cc1` (centres unmarked) [Compound I-98, N-(1-{4-[(hydroxyamino)carbonyl]phenyl}ethyl)-1-methyl-1H-indole-2-carboxamide], the IC50 was < 100 nM.
As for `COc1cccc(C(=O)NC(C)c2ccc(C(=O)NO)cc2)c1` (centres unmarked) [Compound I-225, N-(1-{4-[(hydroxyamino)carbonyl]phenyl}ethyl)-3-methoxybenzamide], the IC50 is < 100 nM.
Still for that read-out and setting: the result for `C[C@@H](NC(=O)c1cc2ccccc2o1)c1cccc(C(=O)NO)c1` [Compound I-201, N-((1R)-1-{3-[(hydroxyamino)carbonyl]phenyl}ethyl)-1-benzofuran-2-carboxamide] reads 100 to 500 nM; that for `CC(NC(=O)CC1Cc2ccccc2C1)c1ccc(C(=O)NO)cc1` (centres unmarked) [Compound I-357, 4-{1-[(2,3-dihydro-1H-inden-2-ylacetyl)amino]ethyl}-N-hydroxybenzamide], < 100 nM; that for `O=C(NO)c1ccc([C@@H](NC(=O)c2cc3ccccc3s2)C2CC2)cc1` [Compound I-249, N-((S)-cyclopropyl{4-[(hydroxyamino)carbonyl]phenyl}methyl)-1-benzothiophene-2-carboxamide], 100 to 500 nM.
Still for that read-out and setting: the result for `CC(C)C(NC(=O)c1ccc(-c2ccccc2)[nH]c1=O)c1ccc(C(=O)NO)cc1` (centres unmarked) [Compound I-375, N-(1-{4-[(hydroxyamino)carbonyl]phenyl}-2-methylpropyl)-2-oxo-6-phenyl-1,2-dihydropyridine-3-carboxamide] reads < 100 nM; that for `Cc1cc(C(=O)NO)ccc1C(C)NC(=O)c1cc2ccccc2s1` (centres unmarked) [Compound I-485, N-(1-{4-[(hydroxyamino)carbonyl]-2-methylphenyl}ethyl)-1-benzothiophene-2-carboxamide], 100 to 500 nM.
On the same count and under the same terms, the result for `CC(NC(=O)C1CCCCCC1)c1ccc(C(=O)NO)cc1` (centres unmarked) [Compound I-213, N-(1-{4-[(hydroxyamino)carbonyl]phenyl}ethyl)cycloheptanecarboxamide] reads < 100 nM.
Regarding `Cc1ccc2[nH]c(C(=O)NC(c3ccc(C(=O)NO)cc3)C(C)(C)C)cc2c1` (centres unmarked) [Compound I-129, N-(1-{4-[(hydroxyamino)carbonyl]phenyl}-2,2-dimethylpropyl)-5-methyl-1H-indole-2-carboxamide], the IC50 was < 100 nM.
Same read-out and setting: the result for `CC(NC(=O)c1cccc2c1OCC2)c1ccc(C(=O)NO)cc1` (centres unmarked) [Compound I-134, N-(1-{4-[(hydroxyamino)carbonyl]phenyl}ethyl)-2,3-dihydro-1-benzofuran-7-carboxamide] reads < 100 nM; that for `CC(NC(=O)c1cc(-c2ccccc2)n[nH]1)c1ccc(C(=O)NO)cc1` (centres unmarked) [Compound I-109, N-(1-{4-[(hydroxyamino)carbonyl]phenyl}ethyl)-3-phenyl-1H-pyrazole-5-carboxamide], < 100 nM; that for `CC(NC(=O)Nc1cccc2nsnc12)c1ccc(C(=O)NO)cc1` (centres unmarked) [Compound I-293, 4-(1-{[(2,1,3-benzothiadiazol-4-ylamino)carbonyl]amino}ethyl)-N-hydroxybenzamide], < 100 nM.
Still for that read-out and setting: the result for `CC(NC(=O)c1cccs1)c1cccc(C(=O)NO)c1` (centres unmarked) [Compound I-267, N-(1-{3-[(hydroxyamino)carbonyl]phenyl}ethyl)thiophene-2-carboxamide] reads 100 to 500 nM; that for `CC(NC(=O)c1cc2ccccc2o1)c1cccc(C(=O)NO)c1` (centres unmarked) [Compound I-401, N-(1-{3-[(hydroxyamino)carbonyl]phenyl}ethyl)-1-benzofuran-2-carboxamide], 100 to 500 nM.
